Columns and labels:
Type in all cases: in vivo
[1] = tested on: corn (Zea mays); assay: Test A postemergence, corn; settings: visual injury, 0 to 100 scale (0 no effect, 100 complete control), approximately 10 days
How it was run: (§1)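 Greenhouse pot test in loam/sand soil. Pre: directed soil spray after seeding. Post: 1–2-leaf plants, 2–10 cm. Formulation: non-phytotoxic solvent + surfactant. Visual rating vs untreated controls at ~10 d, 0 (no effect) to 100 (complete control).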

[2] = tested on: sedge, umbrella (small-flower umbrella sedge, Cyperus difformis); assay: Test B flooded paddy test, umbrella sedge; settings: 500 g ai/ha, applied to paddy water, visual rating after 13 to 15 days, scale 0 (no effect) to 100 (complete control)
How it was run: (§2)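 In-water treatment: compound dosed into 3 cm flood over soil, water level unchanged throughout. Controls run alongside; visual assessment at day 13–15.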

[3] = tested on: kochia (Kochia scoparia); assay: Test A postemergence, kochia; settings: visual injury, 0 to 100 scale (0 no effect, 100 complete control), approximately 10 days
How it was run: as §1

[4] = tested on: rice (Oryza sativa); assay: Test B flooded paddy test, rice; settings: 500 g ai/ha, applied to paddy water, visual rating after 13 to 15 days, scale 0 (no effect) to 100 (complete control)
How it was run: as §2

[5] = tested on: wheat (Triticum aestivum); assay: Test A postemergence, wheat; settings: visual injury, 0 to 100 scale (0 no effect, 100 complete control), approximately 10 days
How it was run: as §1

[6] = tested on: barnyardgrass (Echinochloa crus-galli); assay: Test B flooded paddy test, barnyardgrass; settings: 500 g ai/ha, applied to paddy water, visual rating after 13 to 15 days, scale 0 (no effect) to 100 (complete control)
How it was run: as §2

[7] = tested on: ryegrass, Italian (Lolium multiflorum); assay: Test A postemergence, Italian ryegrass; settings: visual injury, 0 to 100 scale (0 no effect, 100 complete control), approximately 10 days
How it was run: as §1

[8] = tested on: ducksalad (Heteranthera limosa); assay: Test B flooded paddy test, ducksalad; settings: 500 g ai/ha, applied to paddy water, visual rating after 13 to 15 days, scale 0 (no effect) to 100 (complete control)
How it was run: as §2

[9] = tested on: barnyardgrass (Echinochloa crus-galli); assay: Test A preemergence, barnyardgrass; settings: 0 to 100 scale (0 no effect, 100 complete control)
How it was run: as §1

[10] = tested on: ragweed (common ragweed, Ambrosia elatior); assay: Test A postemergence, ragweed; settings: visual injury, 0 to 100 scale (0 no effect, 100 complete control), approximately 10 days
How it was run: as §1

[11] = tested on: pigweed (Amaranthus retroflexus); assay: Test A preemergence, pigweed; settings: 0 to 100 scale (0 no effect, 100 complete control)
How it was run: as §1

[12] = tested on: kochia (Kochia scoparia); assay: Test A preemergence, kochia; settings: 0 to 100 scale (0 no effect, 100 complete control)
How it was run: as §1

[13] = tested on: foxtail, giant (Setaria faberii); assay: Test A postemergence, giant foxtail; settings: visual injury, 0 to 100 scale (0 no effect, 100 complete control), approximately 10 days
How it was run: as §1

[14] = tested on: barnyardgrass (Echinochloa crus-galli); assay: Test A postemergence, barnyardgrass; settings: visual injury, 0 to 100 scale (0 no effect, 100 complete control), approximately 10 days
How it was run: as §1

[15] = tested on: galium (catchweed bedstraw, Galium aparine); assay: Test A postemergence, galium; settings: visual injury, 0 to 100 scale (0 no effect, 100 complete control), approximately 10 days
How it was run: as §1

[16] = tested on: blackgrass (Alopecurus myosuroides); assay: Test A postemergence, blackgrass; settings: visual injury, 0 to 100 scale (0 no effect, 100 complete control), approximately 10 days
How it was run: as §1

[17] = tested on: ragweed (common ragweed, Ambrosia elatior); assay: Test A preemergence, ragweed; settings: 0 to 100 scale (0 no effect, 100 complete control)
How it was run: as §1

[18] = tested on: pigweed (Amaranthus retroflexus); assay: Test A postemergence, pigweed; settings: visual injury, 0 to 100 scale (0 no effect, 100 complete control), approximately 10 days
How it was run: as §1

[19] = tested on: ryegrass, Italian (Lolium multiflorum); assay: Test A preemergence, Italian ryegrass; settings: 0 to 100 scale (0 no effect, 100 complete control)
How it was run: as §1

[20] = tested on: foxtail, giant (Setaria faberii); assay: Test A preemergence, giant foxtail; settings: 0 to 100 scale (0 no effect, 100 complete control)
How it was run: as §1

Compound | Plant response rating, Corn ([1]; 125 g ai/ha) | Plant response rating, Corn ([1]; 500 g ai/ha) | Plant response rating, Sedge, Umbrella (Flood) [2] | Plant response rating, Kochia ([3]; 125 g ai/ha) | Plant response rating, Kochia ([3]; 500 g ai/ha) | Plant response rating, Rice (Flood) [4] | Plant response rating, Wheat ([5]; 125 g ai/ha) | Plant response rating, Wheat ([5]; 500 g ai/ha) | Plant response rating, Barnyardgrass (Flood) [6] | Plant response rating, Ryegrass, Italian ([7]; 125 g ai/ha) | Plant response rating, Ryegrass, Italian ([7]; 500 g ai/ha) | Plant response rating, Ducksalad (Flood) [8] | Plant response rating, Barnyardgrass ([9]; 125 g ai/ha) | Plant response rating, Barnyardgrass ([9]; 500 g ai/ha) | Plant response rating, Ragweed ([10]; 125 g ai/ha) | Plant response rating, Ragweed ([10]; 500 g ai/ha) | Plant response rating, Pigweed ([11]; 125 g ai/ha) | Plant response rating, Pigweed ([11]; 500 g ai/ha) | Plant response rating, Kochia ([12]; 125 g ai/ha) | Plant response rating, Kochia ([12]; 500 g ai/ha) | also measured
O=C1NCC(c2cccc(OCc3ccccc3)c2)C1C(=O)Nc1ccccc1Cl (stereo not drawn) [Compound 67] | 0 | 0 | 0 | 0 | 0 | 0 | 0 | 0 | 0 | 0 | 0 | 0 | 0 | 0 | 0 | 0 | 0 | 0 | 0 | 0 | Plant response rating, Foxtail, Giant ([13]; 125 g ai/ha): 0; Plant response rating, Foxtail, Giant ([13]; 500 g ai/ha): 0; Plant response rating, Barnyardgrass ([14]; 125 g ai/ha): 0; Plant response rating, Barnyardgrass ([14]; 500 g ai/ha): 0; Plant response rating, Galium ([15]; 125 g ai/ha): 0; Plant response rating, Galium ([15]; 500 g ai/ha): 0; Plant response rating, Blackgrass ([16]; 125 g ai/ha): 0; Plant response rating, Blackgrass ([16]; 500 g ai/ha): 0; Plant response rating, Ragweed ([17]; 125 g ai/ha): 0; Plant response rating, Ragweed ([17]; 500 g ai/ha): 0; Plant response rating, Pigweed ([18]; 125 g ai/ha): 0; Plant response rating, Pigweed ([18]; 500 g ai/ha): 0; Plant response rating, Ryegrass, Italian ([19]; 125 g ai/ha): 0; Plant response rating, Ryegrass, Italian ([19]; 500 g ai/ha): 0; Plant response rating, Foxtail, Giant ([20]; 125 g ai/ha): 0; Plant response rating, Foxtail, Giant ([20]; 500 g ai/ha): 0
O=C1NCC(c2cccc(Oc3ccccn3)c2)C1C(=O)Nc1cccc(F)c1F (stereo not drawn) [Compound 68] | 0 | 0 | 0 | 0 | 0 | 0 | 0 | 0 | 20 | 0 | 0 | 80 | 20 | 50 | 0 | 0 | 0 | 0 | 0 | 0 | Plant response rating, Foxtail, Giant ([13]; 125 g ai/ha): 0; Plant response rating, Foxtail, Giant ([13]; 500 g ai/ha): 60; Plant response rating, Barnyardgrass ([14]; 125 g ai/ha): 10; Plant response rating, Barnyardgrass ([14]; 500 g ai/ha): 40; Plant response rating, Galium ([15]; 125 g ai/ha): 0; Plant response rating, Galium ([15]; 500 g ai/ha): 0; Plant response rating, Blackgrass ([16]; 125 g ai/ha): 0; Plant response rating, Blackgrass ([16]; 500 g ai/ha): 20; Plant response rating, Ragweed ([17]; 125 g ai/ha): 0; Plant response rating, Ragweed ([17]; 500 g ai/ha): 0; Plant response rating, Pigweed ([18]; 125 g ai/ha): 0; Plant response rating, Pigweed ([18]; 500 g ai/ha): 0; Plant response rating, Ryegrass, Italian ([19]; 125 g ai/ha): 0; Plant response rating, Ryegrass, Italian ([19]; 500 g ai/ha): 0; Plant response rating, Foxtail, Giant ([20]; 125 g ai/ha): 60; Plant response rating, Foxtail, Giant ([20]; 500 g ai/ha): 90
O=C1NCC(c2cccc(Oc3ccccn3)c2)C1C(=O)Nc1ccccc1Cl (stereo not drawn) [Compound 69] | 0 | 0 | 0 | 0 | 0 | 0 | 0 | 0 | 0 | 0 | 0 | 70 | 0 | 0 | 0 | 0 | 0 | 0 | 0 | 0 | Plant response rating, Foxtail, Giant ([13]; 125 g ai/ha): 0; Plant response rating, Foxtail, Giant ([13]; 500 g ai/ha): 30; Plant response rating, Barnyardgrass ([14]; 125 g ai/ha): 0; Plant response rating, Barnyardgrass ([14]; 500 g ai/ha): 20; Plant response rating, Galium ([15]; 125 g ai/ha): 0; Plant response rating, Galium ([15]; 500 g ai/ha): 0; Plant response rating, Blackgrass ([16]; 125 g ai/ha): 0; Plant response rating, Blackgrass ([16]; 500 g ai/ha): 0; Plant response rating, Ragweed ([17]; 125 g ai/ha): 0; Plant response rating, Ragweed ([17]; 500 g ai/ha): 0; Plant response rating, Pigweed ([18]; 125 g ai/ha): 0; Plant response rating, Pigweed ([18]; 500 g ai/ha): 0; Plant response rating, Ryegrass, Italian ([19]; 125 g ai/ha): 0; Plant response rating, Ryegrass, Italian ([19]; 500 g ai/ha): 0; Plant response rating, Foxtail, Giant ([20]; 125 g ai/ha): 0; Plant response rating, Foxtail, Giant ([20]; 500 g ai/ha): 50
